Experimental data published in article PMC6009913, “N-aryl 2-aryloxyacetamides as a new class of fatty acid amide hydrolase (FAAH) inhibitors” (Journal of Enzyme Inhibition and Medicinal Chemistry, 2017).
≈ marks a conversion by molar mass, not a printed value. Read-outs that look alike come from different tables or passages of the source.

Legend:
[1] = target: T1, FAAH (Rattus norvegicus, UniProt P97612); assay: FAAH inhibition, hydrolysis of 0.5 µM [3H]AEA in rat brain homogenates; assay type: biochemical; settings: for Maximum inhibition: maximal attainable inhibition according to preferred curve fit, mean ± standard error; for effect of pre-incubation on inhibition curve (time dependence): 60 vs. 0 min of pre-incubation
T1 construct: using rat brain homogenates as enzyme source; from tissue; host or cells: rat brain homogenate
T1 sequence (P97612 1-579): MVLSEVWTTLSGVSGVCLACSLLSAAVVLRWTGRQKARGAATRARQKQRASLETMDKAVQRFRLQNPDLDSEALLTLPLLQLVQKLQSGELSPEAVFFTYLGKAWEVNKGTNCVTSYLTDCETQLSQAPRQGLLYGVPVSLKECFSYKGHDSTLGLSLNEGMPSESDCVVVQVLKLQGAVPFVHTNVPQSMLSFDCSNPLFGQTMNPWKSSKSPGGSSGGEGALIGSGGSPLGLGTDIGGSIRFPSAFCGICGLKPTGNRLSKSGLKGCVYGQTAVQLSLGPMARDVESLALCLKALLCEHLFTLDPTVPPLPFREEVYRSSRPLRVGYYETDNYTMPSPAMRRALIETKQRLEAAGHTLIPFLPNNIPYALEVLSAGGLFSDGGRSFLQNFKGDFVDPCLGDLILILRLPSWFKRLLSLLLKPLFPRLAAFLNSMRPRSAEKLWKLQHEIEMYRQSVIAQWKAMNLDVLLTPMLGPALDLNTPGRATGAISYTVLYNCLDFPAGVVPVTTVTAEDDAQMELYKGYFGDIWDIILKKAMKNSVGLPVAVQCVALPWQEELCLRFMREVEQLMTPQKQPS

[2] = thermodynamic aqueous solubility in phosphate-buffered saline; assay type: physicochemical; settings: aqueous buffer, thermodynamic from solid; phosphate-buffered saline 10 mM, pH 7.48, 37 °C
[3] = test system: FAAH; parameters: method as in PMID 12461523; settings: previously reported data; cited from earlier work
[4] = test system: FAAH; parameters: method as in PMID 21502526; settings: reported; cited from earlier work
[5] = 60-min pre-incubation with enzyme

Maximum inhibition ([1]; no pre-incubation)	Compound	other results
3 ± 5%	O=C(COc1ccc(-c2ccccc2)cc1)Nc1ccccc1-c1nc2ncccc2o1 [4a, 2-([1,1′-Biphenyl]-4-yloxy)-N-(2-(oxazolo[4,5-b]pyridin-2-yl)phenyl)acetamide]	–
−1 ± 3%	O=C(COc1ccc(C2CCCCC2)cc1)Nc1ccccc1-c1nc2ncccc2o1 [4b, 2-(4-Cyclohexylphenoxy)-N-(2-(oxazolo[4,5-b]pyridin-2-yl)phenyl)acetamide]	–
7 ± 3%	CCC/C=C/COCC(=O)Nc1ccccc1-c1nc2ncccc2o1 [4c, (E)-2-(hex-2-en-1-yloxy)-N-(2-(oxazolo[4,5-b]pyridin-2-yl)phenyl)acetamide]	–
100%	O=C(COc1ccccc1)Nc1cccc(-c2nc3ncccc3o2)c1 [4d, N-(3-(oxazolo[4,5-b]pyridin-2-yl)phenyl)-2-phenoxyacetamide]	–
100%	CC(C)c1ccc(OCC(=O)Nc2cccc(-c3nc4ncccc4o3)c2)cc1 [4e, 2-(4-Isopropylphenoxy)-N-(3-(oxazolo[4,5-b]pyridin-2-yl)phenyl)acetamide]	–
–	O=C(COc1ccc(-c2ccccc2)cc1)Nc1cccc(-c2nc3ncccc3o2)c1 [4f, 2-([1,1′-Biphenyl]-4-yloxy)-N-(3-(oxazolo[4,5-b]pyridin-2-yl)phenyl)acetamide]	solubility thermodynamic [2]: 3 to 20 µM (≈ 1.26 to 8.43 µg/mL)
100%	O=C(COc1ccc(C2CCCCC2)cc1)Nc1cccc(-c2nc3ncccc3o2)c1 [4g, 2-(4-Cyclohexylphenoxy)-N-(3-(oxazolo[4,5-b]pyridin-2-yl)phenyl)acetamide]	–
100%	CCC/C=C/COCC(=O)Nc1cccc(-c2nc3ncccc3o2)c1 [4h, (E)-2-(hex-2-en-1-yloxy)-N-(3-(oxazolo[4,5-b]pyridin-2-yl)phenyl)acetamide]	–
75 ± 4%	O=C(COc1ccc(-c2ccccc2)cc1)Nc1ccc(-c2nc3ncccc3o2)cc1 [4i, 2-([1,1′-Biphenyl]-4-yloxy)-N-(4-(oxazolo[4,5-b]pyridin-2-yl)phenyl)acetamide]	solubility thermodynamic [2]: 18 µM (≈ 7.59 µg/mL); IC50 [1, 5]: 280 nM; maximum observed inhibition [1, 5]: 39 ± 2%
19 ± 10%	O=C(COc1ccc(C2CCCCC2)cc1)Nc1ccc(-c2nc3ncccc3o2)cc1 [4j, 2-(4-Cyclohexylphenoxy)-N-(4-(oxazolo[4,5-b]pyridin-2-yl)phenyl)acetamide]	–
46 ± 9%	CCC/C=C/COCC(=O)Nc1ccc(-c2nc3ncccc3o2)cc1 [4k, (E)-2-(hex-2-en-1-yloxy)-N-(4-(oxazolo[4,5-b]pyridin-2-yl)phenyl)acetamide]	–
70 ± 2%	O=C(COc1ccc(-c2ccccc2)cc1)Nc1ccccc1-c1nc2ncccc2[nH]1 [4l, N-(2-(1H-imidazo[4,5-b]pyridin-2-yl)phenyl)-2-([1,1'-biphenyl]-4-yloxy)acetamide]	effect of pre-incubation on inhibition curve (time dependence) [1]: reduced maximal inhibition
82 ± 3%	O=C(COc1ccc(C2CCCCC2)cc1)Nc1ccccc1-c1nc2ncccc2[nH]1 [4m, N-(2-(1H-imidazo[4,5-b]pyridin-2-yl)phenyl)-2-(4-cyclohexylphenoxy)acetamide]	solubility thermodynamic [2]: 3 to 20 µM (≈ 1.28 to 8.53 µg/mL); effect of pre-incubation on inhibition curve (time dependence) [1]: reduced maximal inhibition
100%	CCC/C=C/COCC(=O)Nc1ccccc1-c1nc2ncccc2[nH]1 [4n, (E)-N-(2–(1H-imidazo[4,5-b]pyridin-2-yl)phenyl)-2-(hex-2-en-1-yloxy)acetamide]	–
71 ± 9%	O=C(COc1ccc(-c2ccccc2)cc1)Nc1cccc(-c2nc3ncccc3[nH]2)c1 [4o, N-(3-(1H-imidazo[4,5-b]pyridin-2-yl)phenyl)-2-([1,1'-biphenyl]-4-yloxy)acetamide]	–
100%	O=C(COc1ccc(C2CCCCC2)cc1)Nc1cccc(-c2nc3ncccc3[nH]2)c1 [4p, N-(3-(1H-imidazo[4,5-b]pyridin-2-yl)phenyl)-2-(4-cyclohexylphenoxy)acetamide]	–
100%	CCC/C=C/COCC(=O)Nc1cccc(-c2nc3ncccc3[nH]2)c1 [4q, (E)-N-(3-(1H-imidazo[4,5-b]pyridin-2-yl)phenyl)-2-(hex-2-en-1-yloxy)acetamide]	–
80 ± 2%	O=C(COc1ccc(-c2ccccc2)cc1)Nc1ccc(-c2nc3ncccc3[nH]2)cc1 [4r, N-(4-(1H-imidazo[4,5-b]pyridin-2-yl)phenyl)-2-([1,1'-biphenyl]-4-yloxy)acetamide]	solubility thermodynamic [2]: 20 µM (≈ 8.41 µg/mL); effect of pre-incubation on inhibition curve (time dependence) [1]: reduced maximal inhibition
62 ± 4%	O=C(COc1ccc(C2CCCCC2)cc1)Nc1ccc(-c2nc3ncccc3[nH]2)cc1 [4s, N-(4-(1H-imidazo[4,5-b]pyridin-2-yl)phenyl)-2-(4-cyclohexylphenoxy)acetamide]	solubility thermodynamic [2]: 3 µM (≈ 1.28 µg/mL); effect of pre-incubation on inhibition curve (time dependence) [1]: essentially identical inhibition curves
100%	CCC/C=C/COCC(=O)Nc1ccc(-c2nc3ncccc3[nH]2)cc1 [4t, (E)-N-(4-(1H-imidazo[4,5-b]pyridin-2-yl)phenyl)-2-(hex-2-en-1-yloxy)acetamide]	IC50 [1, 5]: 43000 nM; effect of pre-incubation on inhibition curve (time dependence) [1]: A small degree of time-dependent inhibition; IC50 ([1]; rat brain homogenates, 0.5 µM [3H]AEA, no pre-incubation, pooled from three independent experiments, 5–7 concentrations): 64000 nM
–	NC(=O)c1cccc(-c2cccc(OC(=O)NC3CCCCC3)c2)c1 [URB597]	IC50 [3]: 4.6 ± 1.6 nM
–	CCn1c(=O)n([C@H]2CCCN(c3nccc(-c4cc5ccccc5o4)n3)C2)c2ccccc21 [crystal ligand, 1-{(3S)-1-[4–(1-benzofuran-2-yl)pyrimidin-2-yl]piperidin-3-yl}-3-ethyl-1,3-dihydro-2H-benzimidazol-2-one]	IC50 [4]: 100 nM
